Test results: patent US20240384268A1, “Oligonucleotides” (Hudson Institute of Medical Research, priority 2021, published 2024)
In the oligonucleotide strings, read from the 5' end, every base follows the letter of its sugar. An asterisk marks phosphorothioate; unmarked linkages are phosphodiester. Other units and linkages are bracketed, terminal groups are in braces. A string of capitals states the bases alone. d = 2'-deoxy (DNA); m = 2'-O-methyl

Biological target: T1, TLR8 (Homo sapiens, UniProt Q9NR97)
T1 sequence (Q9NR97 27-1041): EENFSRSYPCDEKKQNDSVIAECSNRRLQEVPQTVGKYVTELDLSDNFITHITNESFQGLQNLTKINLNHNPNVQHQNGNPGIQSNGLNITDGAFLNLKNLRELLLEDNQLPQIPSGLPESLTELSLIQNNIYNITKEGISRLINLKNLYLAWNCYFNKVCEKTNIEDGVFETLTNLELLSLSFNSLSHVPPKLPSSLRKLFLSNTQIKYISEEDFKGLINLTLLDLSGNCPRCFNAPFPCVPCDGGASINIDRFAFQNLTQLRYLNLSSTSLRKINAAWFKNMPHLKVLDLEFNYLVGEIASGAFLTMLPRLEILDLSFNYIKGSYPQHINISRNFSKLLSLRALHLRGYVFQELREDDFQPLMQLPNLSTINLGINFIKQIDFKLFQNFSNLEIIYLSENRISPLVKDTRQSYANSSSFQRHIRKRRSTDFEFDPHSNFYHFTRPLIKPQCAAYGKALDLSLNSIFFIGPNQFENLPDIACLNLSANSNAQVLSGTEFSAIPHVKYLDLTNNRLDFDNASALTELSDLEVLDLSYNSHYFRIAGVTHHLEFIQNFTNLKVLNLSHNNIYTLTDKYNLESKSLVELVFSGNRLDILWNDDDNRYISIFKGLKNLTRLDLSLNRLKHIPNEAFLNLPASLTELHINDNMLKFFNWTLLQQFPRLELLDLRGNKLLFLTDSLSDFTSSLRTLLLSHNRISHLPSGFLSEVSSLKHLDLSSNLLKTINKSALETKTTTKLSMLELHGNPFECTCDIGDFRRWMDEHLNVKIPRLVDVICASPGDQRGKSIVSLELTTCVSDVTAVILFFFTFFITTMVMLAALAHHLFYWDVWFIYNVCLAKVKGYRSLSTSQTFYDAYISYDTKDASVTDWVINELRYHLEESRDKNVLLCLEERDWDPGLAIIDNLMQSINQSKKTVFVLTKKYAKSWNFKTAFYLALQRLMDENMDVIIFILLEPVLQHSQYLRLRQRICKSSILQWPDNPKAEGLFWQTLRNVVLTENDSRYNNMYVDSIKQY
Test: HEK-TLR8 NF-κB-luciferase reporter, R848 or Motolimod stimulation (potentiation or inhibition)
Assay type: cell-based
Set-up: expressed in transfected cells; host or cells: 293XLhTLR8 (HEK293)
Settings: HEK-TLR8; 500 nM ASO; fold increase relative to R848 without ASO (Alharbi et al., 2020)

Substance	TLR8-500 nM: averaged NF-κB-Luciferase relative to R848
mU*mC*mU*mG*mG*T*C*C*C*A*T*C*C*C*T*mU*mC*mU*mG*mC (UCUGGTCCCATCCCTUCUGC; antisense; sugars from the 5' end m5 d10 m5, all phosphorothioate, methylation of C not given here) [[LINC-PINT]106]	5.25 fold
mC*mC*mA*mU*mC*C*C*T*T*C*T*G*C*T*G*mC*mC*mA*mA*mG (mC*mC*mA*mU*mC*dC*dC*dT*dT*dC*dT*dG*dC*dT*dG*mC*mC*mA*mA*mG; antisense) [ILING-PINT199]	5.67 fold
mU*mG*mU*mG*mA*A*A*A*G*A*T*T*A*T*C*mU*mU*mC*mU*mU (UGUGAAAAGATTATCUUCUU; sugars from the 5' end m5 d10 m5, all phosphorothioate, methylation of C not given here) [[CDKN2B-AS1]2137]	4.97 fold
mG*mU*mC*mC*mC*A*T*C*C*C*T*T*C*T*G*mC*mU*mG*mC*mC (GUCCCATCCCTTCTGCUGCC; antisense; sugars from the 5' end m5 d10 m5, all phosphorothioate, methylation of C not given here) [[LINC-PINT]102]	5.07 fold
mA*mG*mG*mA*mU*T*A*A*A*A*C*A*G*A*T*mU*mA*mA*mU*mA (mA*mG*mG*mA*mU*dT*dA*dA*dA*dA*dC*dA*dG*dA*dT*mU*mA*mA*mU*mA) [[CDKN2B-AS1] 1775]	2.63 fold
mG*mU*mC*mA*mA*A*C*C*T*A*G*A*A*A*G*mA*mA*mG*mC*mA (mG*mU*mC*mA*mA*dA*dC*dC*dT*dA*dG*dA*dA*dA*dG*mA*mA*mG*mC*mA; antisense) [[CDKN2B-AS1]1528]	1.85 fold
mC*mC*mU*mU*mC*T*G*C*T*G*C*C*A*A*G*mC*mC*mC*mC*mA (mC*mC*mU*mU*mC*dT*dG*dC*dT*dG*dC*dC*dA*dA*dG*mC*mC*mC*mC*mA; antisense) [[LINC-PINT]94]	3.71 fold
mG*mG*mU*mG*mG*C*C*A*C*A*G*G*C*A*A*mC*mG*mU*mC*mA (GGUGGCCACAGGCAACGUCA; antisense; sugars from the 5' end m5 d10 m5, all phosphorothioate, methylation of C not given here) [[CDKN2B-AS1]2196]	0.98 fold
mC*mA*mA*mG*mC*C*C*C*A*G*C*G*T*T*C*mC*mU*mC*mC*mG (mC*mA*mA*mG*mC*dC*dC*dC*dA*dG*dC*dG*dT*dT*dC*mC*mU*mC*mC*mG; antisense) [[LINC-PINT]83.1]	4.44 fold
mU*mG*mA*mU*mG*A*T*G*C*T*T*G*C*A*G*mG*mA*mG*mG*mC (mU*mG*mA*mU*mG*dA*dT*dG*dC*dT*dT*dG*dC*dA*dG*mG*mA*mG*mG*mC) [[LINC-PINT|283.1]	1.57 fold
mG*mC*mG*mU*mA*G*T*T*T*C*T*C*T*T*C*mC*mU*mC*mC*mC (GCGUAGTTTCTCTTCCUCCC; sugars from the 5' end m5 d10 m5, all phosphorothioate, methylation of C not given here) [[LINC-PINT]935 KL]	4.12 fold
mU*mC*mU*mC*mU*G*G*T*C*C*C*A*T*C*C*mC*mU*mU*mC*mU (UCUCUGGTCCCATCCCUUCU; antisense; sugars from the 5' end m5 d10 m5, all phosphorothioate, methylation of C not given here) [[LINC-PINT]108]	11.42 fold
mU*mU*mU*mG*mA*A*A*T*T*C*A*G*A*A*G*mA*mU*mU*mU*mG (mU*mU*mU*mG*mA*dA*dA*dT*dT*dC*dA*dG*dA*dA*dG*mA*mU*mU*mU*mG) [[LINC PINT|2690]	4.93 fold
mG*mA*mA*mA*mA*G*A*T*T*A*T*C*T*T*C*mU*mU*mU*mU*mA (GAAAAGATTATCTTCUUUUA; sugars from the 5' end m5 d10 m5, all phosphorothioate, methylation of C not given here) [[CDKN2B-AS1]2134]	1.87 fold
mA*mC*mC*mC*mU*T*C*T*C*T*C*T*G*G*T*mC*mC*mC*mA*mU (mA*mC*mC*mC*mU*dT*dC*dT*dC*dT*dC*dT*dG*dG*dT*mC*mC*mC*mA*mU; antisense) [[LINC-PINT]115]	7.57 fold
mG*mG*mU*mC*mC*C*A*T*C*C*C*T*T*C*T*mG*mC*mU*mG*mC (GGUCCCATCCCTTCTGCUGC; sugars from the 5' end m5 d10 m5, all phosphorothioate, methylation of C not given here) [[LINC-PINT]103]	1.87 fold
mG*mU*mU*mC*mA*G*T*C*A*G*A*T*C*G*C*mU*mG*mG*mG*mA (mG*mU*mU*mC*mA*dG*dT*dC*dA*dG*dA*dT*dC*dG*dC*mU*mG*mG*mG*mA) [[LINC-PINT]412 KL]	1.70 fold
mG*mG*mG*mU*mC*T*C*C*T*C*C*A*C*A*C*mC*mC*mU*mU*mC (GGGUCTCCTCCACACCCUUC; antisense; sugars from the 5' end m5 d10 m5, all phosphorothioate, methylation of C not given here) [[LINC-PINT]128]	1.23 fold
mC*mU*mC*mU*mC*T*G*G*T*C*C*C*A*T*C*mC*mC*mU*mU*mC (mC*mU*mC*mU*mC*dT*dG*dG*dT*dC*dC*dC*dA*dT*dC*mC*mC*mU*mU*mC; antisense) [[LINC-PINT]109]	10.10 fold
mC*mA*mC*mC*mC*T*T*C*T*C*T*C*T*G*G*mU*mC*mC*mC*mA (CACCCTTCTCTCTGGUCCCA; antisense; sugars from the 5' end m5 d10 m5, all phosphorothioate, methylation of C not given here) [[LINC-PINT]116]	5.97 fold
mA*mU*mA*mU*mC*T*G*C*T*G*C*C*C*A*C*mC*mU*mU*mC*mU (AUAUCTGCTGCCCACCUUCU; antisense; sugars from the 5' end m5 d10 m5, all phosphorothioate, methylation of C not given here) [[CDKN2B-AS1]831]	5.89 fold
mC*mU*mU*mC*mU*C*T*C*T*G*G*T*C*C*C*mA*mU*mC*mC*mC (mC*mU*mU*mC*mU*dC*dT*dC*dT*dG*dG*dT*dC*dC*dC*mA*mU*mC*mC*mC) [[LINC-PINT]112]	9.21 fold
mA*mA*mG*mA*mU*T*A*T*C*T*T*C*T*T*T*mU*mA*mA*mU*mU (mA*mA*mG*mA*mU*dT*dA*dT*dC*dT*dT*dC*dT*dT*dT*mU*mA*mA*mU*mU) [[CDKN2B-AS1]2131]	5.62 fold
mU*mU*mC*mU*mC*T*C*T*G*G*T*C*C*C*A*mU*mC*mC*mC*mU (mU*mU*mC*mU*mC*dT*dC*dT*dG*dG*dT*dC*dC*dC*dA*mU*mC*mC*mC*mU; antisense) [[LINC-PINT]111]	9.51 fold
mG*mG*mU*mC*mU*C*C*T*C*C*A*C*A*C*C*mC*mU*mU*mC*mU (mG*mG*mU*mC*mU*dC*dC*dT*dC*dC*dA*dC*dA*dC*dC*mC*mU*mU*mC*mU; antisense) [[LINC-PINT]127]	3.72 fold
mC*mC*mC*mU*mU*C*T*C*T*C*T*G*G*T*C*mC*mC*mA*mU*mC (mC*mC*mC*mU*mU*dC*dT*dC*dT*dC*dT*dG*dG*dT*dC*mC*mC*mA*mU*mC; antisense) [[LINC-PINT]114]	8.12 fold
mC*mC*mU*mA*mG*A*A*A*G*A*A*G*C*A*A*mA*mG*mA*mU*mU (mC*mC*mU*mA*mG*dA*dA*dA*dG*dA*dA*dG*dC*dA*dA*mA*mG*mA*mU*mU) [[CDKN2B-AS1]1522]	4.94 fold
mA*mG*mG*mC*mC*T*C*C*A*G*T*G*T*C*T*mU*mC*mU*mC*mC (mA*mG*mG*mC*mC*dT*dC*dC*dA*dG*dT*dG*dT*dC*dT*mU*mC*mU*mC*mC; antisense) [[CDKN2B-AS1]2218]	4.66 fold

Same assay, conditions: MOE-modified ASO at 100 nM; averaged NF-κB-Luciferase relative to R848 condition (fold increase)

Substance	TLR8 100 nM
GCCCATCCATGAGGTCCTGG (antisense; 2'-MOE modified, pattern not given here) [CTNN2B-2545 MOE]	0.899
GTCCAAGATCAGCAGTCTCA (antisense; 2'-MOE modified, pattern not given here) [CTNN2B-2341 MOE]	3.021

Same assay, conditions: MOE-modified ASO at 500 nM; averaged NF-κB-Luciferase relative to R848 condition (fold increase)

Substance	TLR8 500 nM
GCCCATCCATGAGGTCCTGG (antisense; 2'-MOE modified, pattern not given here) [CTNN2B-2545 MOE]	0.541
GTCCAAGATCAGCAGTCTCA (antisense; 2'-MOE modified, pattern not given here) [CTNN2B-2341 MOE]	3.364
